Measurements from patent US4822809A, “Benzazole lipoxygenase inhibiting compounds” (Abbott Laboratories, priority 1987, dated 1989).

Target: T1, 5-lipoxygenase (Rattus norvegicus, UniProt P12527)
T1 construct: 20,000×g supernatant from 6×10^4 homogenized RBL-1 cells; endogenous in cells; host or cells: RBL-1 cells (20,000×g supernatant of homogenate)
T1 sequence (P12527 1-673): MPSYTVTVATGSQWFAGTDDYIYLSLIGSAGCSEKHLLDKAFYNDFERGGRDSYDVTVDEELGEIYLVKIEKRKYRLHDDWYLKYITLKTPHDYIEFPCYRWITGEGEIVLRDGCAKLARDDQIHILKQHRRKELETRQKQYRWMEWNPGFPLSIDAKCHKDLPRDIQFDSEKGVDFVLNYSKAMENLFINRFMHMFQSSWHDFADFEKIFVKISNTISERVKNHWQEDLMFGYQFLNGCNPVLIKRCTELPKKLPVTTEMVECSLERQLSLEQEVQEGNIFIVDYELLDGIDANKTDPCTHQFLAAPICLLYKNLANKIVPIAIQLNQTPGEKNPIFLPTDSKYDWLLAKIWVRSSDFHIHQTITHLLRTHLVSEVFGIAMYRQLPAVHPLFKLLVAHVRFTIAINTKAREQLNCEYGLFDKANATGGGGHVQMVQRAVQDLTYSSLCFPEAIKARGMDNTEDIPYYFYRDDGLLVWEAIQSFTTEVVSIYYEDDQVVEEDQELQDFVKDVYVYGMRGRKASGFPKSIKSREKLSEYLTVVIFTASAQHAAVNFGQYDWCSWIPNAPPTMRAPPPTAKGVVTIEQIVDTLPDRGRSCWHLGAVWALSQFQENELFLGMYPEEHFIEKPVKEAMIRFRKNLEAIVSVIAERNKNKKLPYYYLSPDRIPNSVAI
Assay: 5-lipoxygenase inhibition, 20,000×g supernatant of homogenized RBL-1 cells, radiolabelled arachidonic acid
Type: biochemical
Settings: In vitro 5-lipoxygenase inhibitory potency; RBL-1 cell 20,000×g supernatant, 2% DMSO
Experimental: Assays to determine 5-lipoxygenase activity were performed in 200 μL incubations containing the 20,000×g supernatant from 6×10^4 homogenized RBL-1 cells, 2% DMSO vehicle and various concentrations of the test compound. Reactions were initiated by addition of radiolabelled arachidonic acid and terminated by acidification and ether extraction. Reaction products were separated from nonconverted substrate by thin layer chromatography and measured by liquid scintillation spectroscopy. All treatments were evaluated in triplicate incubations. Inhibition of 5-lipoxygenase activity was computed by comparison of the quantity of products formed in the treatment incubations to the mean product formation in vehicle control groups (n=8). IC50 values and 95% confidence limits were computed by linear regression analysis of percentage inhibition versus log inhibitor concentration plots. The results of the assay indicate that the compounds are inhibitors of 5-lipoxygenase.

Row | IC50 [µM] | Compound
1 | 1.9 | CC(c1nc2ccccc2s1)N(O)C(N)=O (centres unmarked) [Example 2, N-hydroxy-N-(1-benzo[b]thiazol-2-ylethyl)urea]
2 | 85 | CNC(=O)N(O)Cc1nc2ccccc2n1C [Example 1, N-hydroxy-N-(1-methyl-benzo[b]imidazol-2-ylmethyl)N'-methylurea]
